Test [1] has as its system BUT-R/1 mutant (ATCC No. PTA-8515). The following applies: 3 days, 37° C. The protocol:
(§1) But-R/1 mutant (ATCC No. PTA-8515), a derivative of C. acetobutylicum ATCC 824, was produced via long-term incubation of wild-type C. acetobutylicum 824 in reinforced Clostridium medium (“RCM”) with glucose (0.5%) and butanol (2.5% v/v) under anaerobic conditions at 37° C. When turbidity developed, the bacterial suspension was spread onto RCM agar with 2.5% butanol. […] Mutants were purified twice using RCM agar containing 2.5% of butanol. […] Cells were grown for 3 days in RCM medium in an anaerobic jar at 37° C. Optical density of cell suspensions was measured at 600 nm spectrophotometrically.

The subject of test [2] is Clostridium acetobutylicum ATCC 824 (wild type). The following applies: 3 days, 37° C. The procedure: as §1
Test [3] relates to omrA/pCR-II TOPO/TOP10 E. coli cells. The procedure: Survival rates of E. coli strains with and without the omrA-plasmid were determined. […] For this experiment, the omrA gene was inserted into the expression plasmid pCR-Blunt II-TOPO (invitrogen, Carlsbad, Calif.) hosted by the TOP10 E. coli strain [F-mcrA Δ (mcr-hsdRMS-mcrBC) Φ)80lacZ ΔM15 ΔlacX74 recA1 deoR araD139 Δ (ara-leu)7697 galU galK rpsL (Str^R) endA1 nupG]. The plasmid with no insertion was used as a control. Flasks (50 ml) containing 10 ml of LB broth with 50 μg/ml kanamycin were inoculated with 100 μl of bacterial cells grown overnight at 37° C. in the same medium and incubated at 37° C. with aeration (200 rpm) for 4 hours. Bacterial growth was stopped by adding chloramphenicol (100 μg/ml) and optical density of cell cultures measured spectrophotometrically at 600 nm.

Like-named read-outs stand apart in the source and are kept apart here.

The values below come from patent US20090176288A1, “Methods and Compositions for Butanol Production” (priority 2006, published 2009).

Take butanol: the “Growth inhibition, Mutant” value is recorded as 0 in test [1] (butanol 0.3 % (v/v)); 0 in test [1] (butanol 0.6 % (v/v)); 0 in test [1] (butanol 0.9 % (v/v)); 23.2 in test [1] (butanol 1.2 % (v/v)); 73.8 in test [1] (butanol 1.5 % (v/v)); 84.2 in test [1] (butanol 1.8 % (v/v)). Further, the “Growth inhibition, WT” value in test [2] (butanol 0.3 % (v/v)) is 8.4; in test [2] (butanol 0.6 % (v/v)), 40.4; in test [2] (butanol 0.9 % (v/v)), 56.1; in test [2] (butanol 1.2 % (v/v)), 89.7; in test [2] (butanol 1.5 % (v/v)) it was 94.2; in test [2] (butanol 1.8 % (v/v)) it was 99.5. Besides, the “resistance to butanol compared with E. coli TOPO10 host cells” value in test [3] (FIG. 2) is on record as “slightly more resistant”. The “bacterial survival in presence of butanol compared with host strain with no omrA gene” value in test [3] (FIG. 3, varying levels of butanol) was “increased bacterial survival significantly”.
